# Source: BindingDB's records for doi:10.1128/aac.38.12.2827 (Merck Research Laboratories, 1995)
# pIC50: −log10 of the molar value.
# Molecular target: Polymerase acidic protein (Influenza A virus (strain A/Puerto Rico/8/1934 H1N1), UniProt P03433)
# Assay: Inhibition of cap 1 ALMV primed Influenza transcriptase
row,Compound,pIC50
1,O=C(O)C(=O)Cc1cc2ccccc2o1,< 3.30
2,NC(=O)C(=O)CC(=O)C1CCCCC1,< 3.30
3,O=C(O)C(=O)CS(=O)(=O)c1ccccc1,< 3.30
4,O=C(O)C(=O)Cc1nc2ccccc2s1,< 3.30
5,Cn1c(CC(=O)C(=O)O)nc2ccccc21,< 3.30
